Test results: US8586579B2, “Anellated pyridine compounds” (Hoffmann-La Roche Inc., priority 2010, dated 2013)
Where two headings read alike, the source gives them in different places.

How the values were obtained:
[1] = target: human 5-HT2A receptor (Homo sapiens (Human), UniProt P28223); test: Radioligand binding assay, [3H]-ketanserin, human 5-HT2A receptor
Outline: (§1)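 Membranes from transiently transfected HEK293 EBNA cells were incubated 1 h at RT with ten compound concentrations (10 μM-0.1 nM) and radioligand: 0.5 nM [3H]-spiperone for D3 (Tris/NaCl/Mg/Ca buffer, pH 7.4) or 1.1 nM [3H]-ketanserin for 5-HT2A (Tris/MgCl2/EGTA, pH 7.4).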

[2] = target: human D3 receptor (Homo sapiens (Human), UniProt P35462); test: Radioligand binding assay, [3H]-spiperone, human D3 receptor; conditions: membranes of HEK293 EBNA cells expressing human D3; 0.5 nM [3H]-spiperone
Sequence of human D3 receptor (P35462 whole entry): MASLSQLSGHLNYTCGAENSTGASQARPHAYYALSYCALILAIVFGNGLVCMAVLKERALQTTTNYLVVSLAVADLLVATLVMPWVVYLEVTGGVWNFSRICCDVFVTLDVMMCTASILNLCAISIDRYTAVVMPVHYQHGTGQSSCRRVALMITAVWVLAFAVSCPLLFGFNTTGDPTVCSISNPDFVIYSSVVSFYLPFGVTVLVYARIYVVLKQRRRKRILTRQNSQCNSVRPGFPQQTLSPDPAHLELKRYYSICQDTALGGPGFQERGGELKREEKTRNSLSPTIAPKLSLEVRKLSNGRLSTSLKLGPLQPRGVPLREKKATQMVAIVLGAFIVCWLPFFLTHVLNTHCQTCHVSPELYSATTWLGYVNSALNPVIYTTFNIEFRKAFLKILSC
Outline: as §1

[3] = target: human D2 receptor (Homo sapiens (Human), UniProt P14416); test: Radioligand binding assay, [3H]-spiperone, human D2 receptor; conditions: membranes of HEK293 EBNA cells expressing human D2; 0.7 nM [3H]-spiperone
Sequence of human D2 receptor (P14416 whole entry): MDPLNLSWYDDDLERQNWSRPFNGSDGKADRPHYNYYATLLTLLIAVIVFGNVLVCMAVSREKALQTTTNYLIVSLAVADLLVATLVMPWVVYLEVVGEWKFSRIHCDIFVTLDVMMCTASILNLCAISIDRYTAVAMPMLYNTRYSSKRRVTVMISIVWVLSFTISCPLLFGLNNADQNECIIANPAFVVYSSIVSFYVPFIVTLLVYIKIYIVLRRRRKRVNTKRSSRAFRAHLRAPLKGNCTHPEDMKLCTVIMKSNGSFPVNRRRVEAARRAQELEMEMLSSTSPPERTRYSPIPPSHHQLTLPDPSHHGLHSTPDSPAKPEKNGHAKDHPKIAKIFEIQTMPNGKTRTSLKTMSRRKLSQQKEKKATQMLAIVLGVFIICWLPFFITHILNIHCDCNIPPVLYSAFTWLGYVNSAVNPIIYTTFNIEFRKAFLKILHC
Outline: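 Membranes from HEK293 EBNA cells transiently expressing human D2 were incubated 1 h at RT with ~0.7 nM [3H]-spiperone and ten compound concentrations (10 μM–0.1 nM) in Tris buffer with NaCl, MgCl2, KCl, CaCl2, EDTA, pH 7.4.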

[4] = membranes of HEK293 EBNA cells expressing human 5-HT2A, 1.1 nM [3H]-ketanserin

Sequence of human 5-HT2A receptor (P28223 whole entry): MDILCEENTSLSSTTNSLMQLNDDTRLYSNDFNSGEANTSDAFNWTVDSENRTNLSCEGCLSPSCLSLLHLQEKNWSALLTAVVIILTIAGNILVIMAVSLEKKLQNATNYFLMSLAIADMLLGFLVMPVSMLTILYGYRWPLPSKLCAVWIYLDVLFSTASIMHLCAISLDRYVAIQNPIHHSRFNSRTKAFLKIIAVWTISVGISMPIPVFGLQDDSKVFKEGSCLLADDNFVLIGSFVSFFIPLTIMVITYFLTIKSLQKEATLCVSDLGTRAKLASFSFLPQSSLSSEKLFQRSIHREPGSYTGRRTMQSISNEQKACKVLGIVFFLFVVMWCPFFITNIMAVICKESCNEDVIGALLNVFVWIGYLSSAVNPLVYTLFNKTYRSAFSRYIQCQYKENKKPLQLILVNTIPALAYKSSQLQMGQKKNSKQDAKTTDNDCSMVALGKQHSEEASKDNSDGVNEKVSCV

Row | SMILES | Ki [1, 4] | Ki [2] | Ki [3] | melting point | Ki [1]
1 | CC(C)(C)CC(=O)N[C@H]1CC[C@H](CCN2CCN(c3nccc4c3CCO4)CC2)CC1 [Example 72, trans-N-(4-{2-[4-(2,3-Dihydro-furo[3,2-c]pyridin-4-yl)-piperazin-1-yl]-ethyl}-cyclohexyl)-3,3-dimethyl-butyramide] | 16.2 nM | 17 nM | 444 nM | 192.5 °C | 
2 | CCC(=O)N[C@H]1CC[C@H](CCN2CCN(c3nccc4c3CCO4)CC2)CC1 [Example 36, trans-N-(4-{2-[4-(2,3-Dihydrofuro[3,2-c]pyridin-4-yl)-piperazin-1-yl]-ethyl}-cyclohexyl)-propionamide] | 13.3 nM | 9.7 nM | 813 nM | 192.5 °C | 
3 | N#CCC(=O)N[C@H]1CC[C@H](CCN2CCN(c3nccc4c3CCO4)CC2)CC1 [Example 59, trans-2-Cyano-N-(4-{2-[4-(2,3-dihydro-furo[3,2-c]pyridin-4-yl)-piperazin-1-yl]-ethyl}-cyclohexyl)-acetamide] |  | 7.74 nM | 702 nM | 188 °C | 15.7 nM
4 | CC(C)C(=O)N[C@H]1CC[C@H](CCN2CCN(c3nccc4c3CCO4)CC2)CC1 [Example 75, trans-N-(4-{2-[4-(2,3-Dihydro-furo[3,2-c]pyridin-4-yl)-piperazin-1-yl]-ethyl}-cyclohexyl)-isobutyramide] |  | 16.6 nM | 705 nM | 219 °C | 10.2 nM
5 | O=C(N[C@H]1CC[C@H](CCN2CCN(c3nccc4c3CCO4)CC2)CC1)c1cnc(N2CCOCC2)cn1 [Example 130, 5-Morpholin-4-yl-pyrazine-2-carboxylic acid trans-(4-{2-[4-(2,3-dihydro-furo[3,2-c]pyridin-4-yl)-piperazin-1-yl]-ethyl}-cyclohexyl)-amide] | 18.4 nM | 119 nM | 506 nM | 192.5 °C | 
6 | O=C(N[C@H]1CC[C@H](CCN2CCN(c3nccc4c3CCO4)CC2)CC1)c1ccc(F)cc1 [Example 45, trans-N-(4-{2-[4-(2,3-Dihydro-furo[3,2-c]pyridin-4-yl)-piperazin-1-yl]-ethyl}-cyclohexyl)-4-fluoro-benzamide] |  | 10.7 nM | 342 nM | 209.5 °C | 11.1 nM
7 | COCCC(=O)N[C@H]1CC[C@H](CCN2CCN(c3ncc(C)c4occc34)CC2)CC1 [Example 107, trans-3-Methoxy-N-(4-{2-[4-(7-methyl-furo[3,2-c]pyridin-4-yl)-piperazin-1-yl]-ethyl}-cyclohexyl)-propionamide] | 12 nM | 30 nM | 2470 nM | 177 °C | 
8 | COCCC(=O)N[C@H]1CC[C@H](CCN2CCN(c3nc(C)cc4occc34)CC2)CC1 [Example 99, trans-3-Methoxy-N-(4-{2-[4-(6-methyl-furo[3,2-c]pyridin-4-yl)-piperazin-1-yl]-ethyl}-cyclohexyl)-propionamide] | 86.9 nM | 4.8 nM | 430 nM | 158 °C | 
9 | COCC(=O)N[C@H]1CC[C@H](CCN2CCN(c3nccc4c3CCO4)CC2)CC1 [Example 38, trans-N-(4-{2-[4-(2,3-Dihydrofuro[3,2-c]pyridin-4-yl)-piperazin-1-yl]-ethyl}-cyclohexyl)-2-methoxyacetamide] |  | 45.4 nM | 1550 nM | 169.5 °C | 11 nM
10 | CN(C)C(=O)CCC(=O)N[C@H]1CC[C@H](CCN2CCN(c3nccc4c3CCO4)CC2)CC1 [Example 86, trans-N-(4-{2-[4-(2,3-Dihydro-furo[3,2-c]pyridin-4-yl)-piperazin-1-yl]-ethyl}-cyclohexyl)-N′,N′-dimethyl-succinamide] | 23.9 nM | 37.6 nM | 2560 nM | 188 °C | 
